Test results from US20230114728A1 (Venatorx Pharmaceuticals, Inc., priority 2019, published 2023).
≈ marks a conversion by molar mass, not a printed value.

Experiments:
[1] = target: T1, P. aeruginosa PBP3 (Pseudomonas aeruginosa, UniProt G3XD46); experiment: Bocillin-FL fluorescence polarization competition binding assay, P. aeruginosa PBP3; conditions: fluorescence polarization competition binding assay using Bocillin-FL
T1 construct: made in house
Method in brief: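 Inhibitor competition with Bocillin-FL for P. aeruginosa PBP3 was followed by fluorescence polarization on a Cytation3 (BioTek) reader, using g-factor 0.96, 490 nm excitation and 520 nm emission. The enzyme was at 0.75 μM and the probe at 0.1 μM in Hepes/NaCl/glycerol buffer, 80 μl per well. FP was recorded immediately after probe addition for up to 60 minutes. Potency was expressed as EC50, the concentration that reduces bound probe by 50%.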

[2] = tested on: N. gonorrhoeae ATCC 49226; experiment: Liquid broth MIC in Fastidious broth; format: cell-based; conditions: Neisseria gonorrhoeae, ATCC49226; N. gonorrhoeae strain ATCC 49226; Fastidious broth; read-out: Minimum Inhibitory Concentration, N. gonorrhoeae ATCC 49226
Method in brief: (§1)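 Colonies were swabbed from chocolate agar after 24 h growth and standardised by optical density at 600 nm. Compounds were serially diluted twofold in Fastidious broth, and bacteria added to give 5×10^5 CFU/mL. After about 24 h at 36 °C in 5% CO2, the lowest concentration allowing under 10% growth was taken as MIC.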

[3] = tested on: N. gonorrhoeae FA1090; experiment: Liquid broth MIC in Fastidious broth; format: cell-based; conditions: Neisseria gonorrhoeae; N. gonorrhoeae strain FA1090; Fastidious broth; read-out: Minimum Inhibitory Concentration, N. gonorrhoeae FA1090
Method in brief: as §1

[4] = tested on: N. gonorrhoeae H041; experiment: Liquid broth MIC in Fastidious broth; format: cell-based; conditions: Neisseria gonorrhoeae, H041, read-out: Minimum Inhibitory Concentration, N. gonorrhoeae H041
Method in brief: as §1

[5] = tested on: N. gonorrhoeae WHO G; experiment: Liquid broth MIC in Fastidious broth; format: cell-based; conditions: Neisseria gonorrhoeae; N. gonorrhoeae strain WHO G; Fastidious broth; read-out: Minimum Inhibitory Concentration, N. gonorrhoeae WHO G
Method in brief: as §1

[6] = tested on: N. gonorrhoeae WHO K; experiment: Liquid broth MIC in Fastidious broth; format: cell-based; conditions: Neisseria gonorrhoeae, read-out: Minimum Inhibitory Concentration, N. gonorrhoeae WHO K
Method in brief: as §1

[7] = tested on: N. gonorrhoeae WHO L; experiment: Liquid broth MIC in Fastidious broth; format: cell-based; conditions: Neisseria gonorrhoeae; N. gonorrhoeae strain WHO L; Fastidious broth; read-out: Minimum Inhibitory Concentration, N. gonorrhoeae WHO L
Method in brief: as §1

[8] = tested on: N. gonorrhoeae WHO Q; experiment: Liquid broth MIC in Fastidious broth; format: cell-based; conditions: Neisseria gonorrhoeae, read-out: Minimum Inhibitory Concentration, N. gonorrhoeae WHO Q
Method in brief: as §1

[9] = tested on: N. gonorrhoeae WHO Z; experiment: Liquid broth MIC in Fastidious broth; format: cell-based; conditions: Neisseria gonorrhoeae, read-out: Minimum Inhibitory Concentration, N. gonorrhoeae WHO Z
Method in brief: as §1

T1 sequence (G3XD46 whole entry): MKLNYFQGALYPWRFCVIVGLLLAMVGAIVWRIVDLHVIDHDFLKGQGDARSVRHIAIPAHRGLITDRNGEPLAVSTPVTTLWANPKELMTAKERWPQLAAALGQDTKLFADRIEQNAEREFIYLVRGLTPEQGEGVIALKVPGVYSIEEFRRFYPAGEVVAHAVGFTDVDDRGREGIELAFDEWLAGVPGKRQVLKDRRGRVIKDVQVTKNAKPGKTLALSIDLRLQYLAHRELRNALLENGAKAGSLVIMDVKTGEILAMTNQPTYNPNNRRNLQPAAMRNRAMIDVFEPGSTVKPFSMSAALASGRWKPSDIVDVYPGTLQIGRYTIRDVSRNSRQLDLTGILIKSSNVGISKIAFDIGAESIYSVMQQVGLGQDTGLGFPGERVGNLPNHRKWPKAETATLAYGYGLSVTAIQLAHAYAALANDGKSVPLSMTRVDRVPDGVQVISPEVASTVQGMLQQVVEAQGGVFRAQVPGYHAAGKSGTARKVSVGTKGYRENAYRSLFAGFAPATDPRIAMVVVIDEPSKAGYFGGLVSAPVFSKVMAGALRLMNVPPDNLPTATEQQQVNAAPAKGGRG

Compound	P. aeruginosa PBP3 Potency [1]	MIC [2] [µg/mL]	MIC [3] [µg/mL]	MIC [4] [µg/mL]	MIC [5] [µg/mL]	MIC [6] [µg/mL]	MIC [7] [µg/mL]	MIC [8] [µg/mL]	MIC [9] [µg/mL]
NCCN1CCN(C(=O)N[C@H](C(=O)N[C@H]2Cc3ccc(F)c(C(=O)O)c3OB2O)c2c(F)cc(O)cc2F)C(=O)C1=O (single isomer, unassigned) [Example 128]	C (C represents a potency between 10 and 30 μM)	> 64	16 to 32 (≈ 27 to 53.9 µM)	> 64	> 64	> 64	> 64	> 64	> 64
NC1(CN2CCN(C(=O)N[C@@H](C(=O)N[C@H]3Cc4ccc(F)c(C(=O)O)c4OB3O)c3cc(F)c(O)c(O)c3Cl)C(=O)C2=O)CC1 (single isomer, unassigned) [Example 133]	D (D represents a potency <10 μM)	> 64	16 to 32 (≈ 24.5 to 49.1 µM)	> 64	16 to 32 (≈ 24.5 to 49.1 µM)	> 64	> 64	> 64	> 64
NC1(CN2CCN(C(=O)N[C@@H](C(=O)N[C@H]3Cc4ccc(F)c(C(=O)O)c4OB3O)c3c(F)cc(O)c(O)c3Cl)C(=O)C2=O)CC1 (single isomer, unassigned) [Example 134]	D (D represents a potency <10 μM)	> 64	16 to 32 (≈ 24.5 to 49.1 µM)	> 64	> 64	> 64	> 64	> 64	> 64
CS(=O)(=O)N1CCN(C(=O)N[C@@H](C(=O)N[C@H]2Cc3cccc(C(=O)O)c3OB2O)c2c(F)cc(O)cc2F)C1=O (single isomer, unassigned) [Example 135]	D (D represents a potency <10 μM)	4 to 8 (≈ 6.87 to 13.7 µM)	< 0.125	> 64	1 to 2 (≈ 1.72 to 3.43 µM)	> 64	16 to 32 (≈ 27.5 to 55 µM)	16 to 32 (≈ 27.5 to 55 µM)	16 to 32 (≈ 27.5 to 55 µM)
CS(=O)(=O)N1CCN(C(=O)N[C@H](C(=O)N[C@H]2Cc3cccc(C(=O)O)c3OB2O)c2c(F)cc(O)cc2F)C1=O (single isomer, unassigned) [Example 136]	B (B represents a potency between 30 μM and 500 μM inclusive)	> 64	1 to 2 (≈ 1.72 to 3.43 µM)	> 64	16 to 32 (≈ 27.5 to 55 µM)	> 64	> 64	> 64	> 64
CCN1CCN(C(=O)N[C@H](C(=O)N[C@H]2Cc3cccc(C(=O)O)c3OB2O)c2ccc(C(=O)O)c(F)c2F)C(=O)C1=O (single isomer, unassigned) [Example 139]	D (D represents a potency <10 μM)	1 to 2 (≈ 1.7 to 3.4 µM)	< 0.125	4 to 8 (≈ 6.8 to 13.6 µM)	1 to 2 (≈ 1.7 to 3.4 µM)	4 to 8 (≈ 6.8 to 13.6 µM)	4 to 8 (≈ 6.8 to 13.6 µM)	4 to 8 (≈ 6.8 to 13.6 µM)	1 to 2 (≈ 1.7 to 3.4 µM)
CCN1CCN(C(=O)N[C@@H](C(=O)N[C@H]2Cc3cccc(C(=O)O)c3OB2O)c2ccc(C(=O)O)c(F)c2F)C(=O)C1=O (single isomer, unassigned) [Example 140]	D (D represents a potency <10 μM)	0.25 to 0.5 (≈ 0.425 to 0.85 µM)	< 0.125	1 to 2 (≈ 1.7 to 3.4 µM)	0.25 to 0.5 (≈ 0.425 to 0.85 µM)	1 to 2 (≈ 1.7 to 3.4 µM)	1 to 2 (≈ 1.7 to 3.4 µM)	1 to 2 (≈ 1.7 to 3.4 µM)	0.25 to 0.5 (≈ 0.425 to 0.85 µM)
CCN1CCN(C(=O)N[C@H](C(=O)N[C@H]2Cc3cccc(C(=O)O)c3OB2O)c2ccc(C(=O)O)cc2O)C(=O)C1=O (single isomer, unassigned) [Example 143]	B (B represents a potency between 30 μM and 500 μM inclusive)	16 to 32 (≈ 28.2 to 56.3 µM)	1 to 2 (≈ 1.76 to 3.52 µM)	> 64	4 to 8 (≈ 7.04 to 14.1 µM)	> 64	> 64	> 64	16 to 32 (≈ 28.2 to 56.3 µM)
CCN1CCN(C(=O)N[C@@H](C(=O)N[C@H]2Cc3cccc(C(=O)O)c3OB2O)c2ccc(C(=O)O)cc2O)C(=O)C1=O (single isomer, unassigned) [Example 144]	D (D represents a potency <10 μM)	1 to 2 (≈ 1.76 to 3.52 µM)	< 0.125	16 to 32 (≈ 28.2 to 56.3 µM)	0.25 to 0.5 (≈ 0.44 to 0.88 µM)	16 to 32 (≈ 28.2 to 56.3 µM)	4 to 8 (≈ 7.04 to 14.1 µM)	4 to 8 (≈ 7.04 to 14.1 µM)	4 to 8 (≈ 7.04 to 14.1 µM)
CCN1CCN(C(=O)N[C@@H](C(=O)N[C@H]2Cc3cccc(C(=O)O)c3OB2O)c2ccc(C(=O)O)c(F)c2)C(=O)C1=O (single isomer, unassigned) [Example 146]	D (D represents a potency <10 μM)	1 to 2 (≈ 1.75 to 3.51 µM)	< 0.125	4 to 8 (≈ 7.01 to 14 µM)	0.25 to 0.5 (≈ 0.438 to 0.877 µM)	1 to 2 (≈ 1.75 to 3.51 µM)	4 to 8 (≈ 7.01 to 14 µM)	1 to 2 (≈ 1.75 to 3.51 µM)	1 to 2 (≈ 1.75 to 3.51 µM)
CCN1CCN(C(=O)N[C@H](C(=O)N[C@H]2Cc3cccc(C(=O)O)c3OB2O)c2ccc(C(=O)O)c(F)c2)C(=O)C1=O (single isomer, unassigned) [Example 147]	D (D represents a potency <10 μM)	1 to 2 (≈ 1.75 to 3.51 µM)	< 0.125	1 to 2 (≈ 1.75 to 3.51 µM)	0.25 to 0.5 (≈ 0.438 to 0.877 µM)	0.25 to 0.5 (≈ 0.438 to 0.877 µM)	4 to 8 (≈ 7.01 to 14 µM)	0.25 to 0.5 (≈ 0.438 to 0.877 µM)	0.25 to 0.5 (≈ 0.438 to 0.877 µM)
CCN1CCN(C(=O)N[C@@H](C(=O)N[C@H]2Cc3cccc(C(=O)O)c3OB2O)c2cc(F)c(C(=O)O)cc2Cl)C(=O)C1=O (single isomer, unassigned) [Example 148]	D (D represents a potency <10 μM)	4 to 8 (≈ 6.61 to 13.2 µM)	0.25 to 0.5 (≈ 0.413 to 0.827 µM)	16 to 32 (≈ 26.5 to 52.9 µM)	1 to 2 (≈ 1.65 to 3.31 µM)	4 to 8 (≈ 6.61 to 13.2 µM)	> 64	4 to 8 (≈ 6.61 to 13.2 µM)	4 to 8 (≈ 6.61 to 13.2 µM)
CCN1CCN(C(=O)N[C@H](C(=O)N[C@H]2Cc3cccc(C(=O)O)c3OB2O)c2cc(F)c(C(=O)O)cc2Cl)C(=O)C1=O (single isomer, unassigned) [Example 149]	C (C represents a potency between 10 and 30 μM)	> 64	4 to 8 (≈ 6.61 to 13.2 µM)	> 64	16 to 32 (≈ 26.5 to 52.9 µM)	> 64	> 64	> 64	16 to 32 (≈ 26.5 to 52.9 µM)
CCN1CCN(C(=O)N[C@@H](C(=O)N[C@H]2Cc3cccc(C(=O)O)c3OB2O)c2ccc(C(=O)O)cc2Cl)C(=O)C1=O (single isomer, unassigned) [Example 151]	D (D represents a potency <10 μM)	4 to 8 (≈ 6.82 to 13.6 µM)	0.25 to 0.5 (≈ 0.426 to 0.852 µM)	4 to 8 (≈ 6.82 to 13.6 µM)	1 to 2 (≈ 1.7 to 3.41 µM)	4 to 8 (≈ 6.82 to 13.6 µM)	16 to 32 (≈ 27.3 to 54.5 µM)	4 to 8 (≈ 6.82 to 13.6 µM)	1 to 2 (≈ 1.7 to 3.41 µM)
